We go through 2 molecules from the NIST ThermoML archive (doi:10.1021/acs.jced.8b01053).

The conditions of the data set: Liquid, Ebulliometric method (Recirculating still).

± gives the expanded uncertainty stated by the source.

Regarding `CC(=O)OCCC(C)C` [3-methylbutyl ethanoate], the vapor or sublimation pressure – broadly, the equilibrium pressure above the liquid or solid – (391.07 K) was found to be 50 ± 1 kPa and the “vapor or sublimation pressure” value (413.46 K) worked out at 100 ± 1 kPa.
In the case of `CCOC(C)=O` [ethyl acetate], the “vapor or sublimation pressure” value by setting is: (330.01 K) 50 ± 1 kPa; (349.53 K) 100 ± 1 kPa.
